In patent publication US10781181B2, “N-((het) arylmethyl)-heteroaryl-carboxamides compounds as plasma kallikrein inhibitors” (Kalvista Pharmaceuticals Limited, priority 2014, dated 2020):
Read-outs that look alike come from different tables or passages of the source.

Key:
Format in all cases: biochemical
Human FXIa = Human FXIa (Homo sapiens (Human), UniProt P03951); experiment: Determination of the % inhibition for FXIa; settings: for inhibition at 40 µM: read-out: % Inhibition @ 40 μM (human FXIa)
Human FXIa, sequence (P03951 388-625 limits assumed): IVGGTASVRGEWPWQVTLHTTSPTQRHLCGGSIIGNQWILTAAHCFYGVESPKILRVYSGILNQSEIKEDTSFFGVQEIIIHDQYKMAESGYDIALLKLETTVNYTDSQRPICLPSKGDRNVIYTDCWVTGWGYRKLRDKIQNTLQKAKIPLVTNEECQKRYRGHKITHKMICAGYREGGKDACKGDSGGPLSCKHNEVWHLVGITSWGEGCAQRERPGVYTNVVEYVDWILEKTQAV
Human FXIa, sequence (P03951 19-387 partner limits assumed): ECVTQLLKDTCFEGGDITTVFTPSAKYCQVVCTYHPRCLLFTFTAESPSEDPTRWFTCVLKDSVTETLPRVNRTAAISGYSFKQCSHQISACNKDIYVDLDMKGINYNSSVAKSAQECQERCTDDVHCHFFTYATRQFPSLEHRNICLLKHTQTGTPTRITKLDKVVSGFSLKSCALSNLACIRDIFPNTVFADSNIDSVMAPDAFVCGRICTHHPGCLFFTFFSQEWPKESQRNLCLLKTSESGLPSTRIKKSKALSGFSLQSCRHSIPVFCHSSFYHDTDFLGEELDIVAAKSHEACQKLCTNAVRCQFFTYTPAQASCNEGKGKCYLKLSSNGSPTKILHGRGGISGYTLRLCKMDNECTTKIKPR
Procedure: Determination of the % Inhibition for FXIa
Human FXIa (Enzyme Research Laboratories) was incubated at 25° C. with the fluorogenic substrate Z-Gly-Pro-Arg-AFC and 40 μM of the test compound. Residual enzyme activity (initial rate of reaction) was determined by measuring the change in […].

Human plasma kallikrein = Human plasma kallikrein (Homo sapiens (Human), UniProt P03952); experiment: Determination of the IC50 for plasma kallikrein; settings: read-out: IC50 (human PKal)
Human plasma kallikrein, sequence (P03952 391-638): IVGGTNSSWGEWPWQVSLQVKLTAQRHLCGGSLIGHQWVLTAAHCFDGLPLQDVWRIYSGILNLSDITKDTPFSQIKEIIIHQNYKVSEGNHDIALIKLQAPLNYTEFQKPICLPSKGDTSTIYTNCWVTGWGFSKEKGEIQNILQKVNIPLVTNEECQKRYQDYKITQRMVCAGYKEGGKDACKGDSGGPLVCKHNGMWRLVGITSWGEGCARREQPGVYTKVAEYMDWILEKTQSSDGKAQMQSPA
Human plasma kallikrein, sequence (P03952 20-390 partner): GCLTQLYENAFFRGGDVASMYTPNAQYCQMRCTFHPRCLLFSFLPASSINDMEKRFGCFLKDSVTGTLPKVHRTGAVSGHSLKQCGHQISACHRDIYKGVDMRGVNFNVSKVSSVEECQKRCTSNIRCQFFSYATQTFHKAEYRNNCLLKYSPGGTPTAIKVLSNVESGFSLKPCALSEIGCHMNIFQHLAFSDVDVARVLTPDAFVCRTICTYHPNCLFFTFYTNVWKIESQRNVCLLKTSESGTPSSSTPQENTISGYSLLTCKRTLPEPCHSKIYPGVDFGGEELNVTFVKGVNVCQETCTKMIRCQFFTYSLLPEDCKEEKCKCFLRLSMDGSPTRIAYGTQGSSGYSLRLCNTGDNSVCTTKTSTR
Procedure: Determination of the IC50 for Plasma Kallikrein
(§1) Human plasma kallikrein (Protogen) was incubated at 25° C. with the fluorogenic substrate H-DPro-Phe-Arg-AFC and various concentrations of the test compound. Residual enzyme activity (initial rate of reaction) was determined by measuring the change in […] at 410 nm and the IC50 value for the test compound was determined.

Human KLK1 = Human KLK1 (Homo sapiens (Human), UniProt P06870); experiment: Determination of the IC50 for KLK1; settings: human KLK1, 25° C., substrate H-DVal-Leu-Arg-AFC
Human KLK1, sequence (P06870 25-262): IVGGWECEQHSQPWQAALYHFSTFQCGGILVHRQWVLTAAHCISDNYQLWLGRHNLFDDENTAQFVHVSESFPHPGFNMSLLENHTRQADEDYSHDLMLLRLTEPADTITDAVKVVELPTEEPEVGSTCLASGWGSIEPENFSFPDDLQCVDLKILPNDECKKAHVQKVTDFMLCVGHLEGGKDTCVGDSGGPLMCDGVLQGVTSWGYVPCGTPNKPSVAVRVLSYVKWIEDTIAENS
Procedure: Determination of the IC50 for KLK1
as §1, with “KLK1 (Callbiochem)” for “plasma kallikrein (Protogen)”, “H-DVal-Leu-Arg-AFC” for “H-DPro-Phe-Arg-AFC”

[1] = 40 μM of the test compound, human FXIa, 25° C.

| inhibition at 40 µM (Human FXIa; [1]) | IC50 (Human plasma kallikrein) | IC50 (Human KLK1) | SMILES | % Inhibition @ 40 μM (human FXIa) (Human FXIa; [1]) | inhibition at 40 µM (Human FXIa) |
| --- | --- | --- | --- | --- | --- |
| 32% | 0.0301 µM | > 40 µM | Nc1nn(Cc2ccc(Cn3ccccc3=O)cc2)cc1C(=O)NCCNc1cc(Cl)ccn1 [Example 47, 3-amino-N-{2-[(4-chloropyridin-2-yl)amino]ethyl}-1-({4-[(2-oxopyridin-1-yl)methyl]phenyl}methyl)pyrazole-4-carboxamide] |  |  |
| 0% | 0.847 µM | > 40 µM | Nc1nn(Cc2ccc(N3CCCC3)nc2)cc1C(=O)NCCOc1cccc(Cl)c1 [Example 49, 3-amino-N-[2-(3-chlorophenoxy)ethyl]-1-{[6-(pyrrolidin-1-yl)pyridin-3-yl]methyl}pyrazole-4-carboxamide] |  |  |
| 59% | 0.326 µM | > 40 µM | Nc1nn(Cc2ccnc(N3CCCC3)c2)cc1C(=O)NCCOc1cccc(Cl)c1 [Example 50, 3-amino-N-[2-(3-chlorophenoxy)ethyl]-1-{[2-(pyrrolidin-1-yl)pyridin-4-yl]methyl}pyrazole-4-carboxamide] |  |  |
| 51% | 0.427 µM | > 40 µM | Nc1nn(Cc2ccc(C(=O)N3CCCC3)cc2)cc1C(=O)NCCOc1cccc(Cl)c1 [Example 51, 3-amino-N-[2-(3-chlorophenoxy)ethyl]-1-({4-[(pyrrolidin-1-yl)carbonyl]phenyl}methyl)pyrazole-4-carboxamide] |  |  |
| 0% | 0.335 µM | > 40 µM | Nc1nn(Cc2ccc(-n3ccccc3=O)cc2)cc1C(=O)NCCOc1cccc(Cl)c1 [Example 52, 3-amino-N-[2-(3-chlorophenoxy)ethyl]-1-{[4-(2-oxopyridin-1-yl)phenyl]methyl}pyrazole-4-carboxamide] |  |  |
| 0% | 4.73 µM | > 40 µM | Nc1nn(Cc2cccc(N3CCCC3)n2)cc1C(=O)NCCOc1cccc(Cl)c1 [Example 53, 3-amino-N-[2-(3-chlorophenoxy)ethyl]-1-{[6-(pyrrolidin-1-yl)pyridin-2-yl]methyl}pyrazole-4-carboxamide] |  |  |
| 67% | 0.245 µM | > 40 µM | Cc1ccc2cc(Cn3cc(C(=O)NCCOc4cccc(Cl)c4)c(N)n3)ccc2n1 [Example 54, 3-amino-N-[2-(3-chlorophenoxy)ethyl]-1-[(2-methylquinolin-6-yl)methyl]pyrazole-4-carboxamide] |  |  |
| 1% | 5.42 µM | > 40 µM | COC(=O)c1ccc(Cn2cc(C(=O)NCCOc3cccc(Cl)c3)c(N)n2)cc1 [Example 58, methyl 4-[(3-amino-4-{[2-(3-chlorophenoxy)ethyl]carbamoyl}pyrazol-1-yl)methyl]benzoate] |  |  |
| 0% | 7.25 µM | > 40 µM | CNC(=O)c1ccc(Cn2cc(C(=O)NCCOc3cccc(Cl)c3)c(N)n2)cc1 [Example 61, 3-amino-N-[2-(3-chlorophenoxy)ethyl]-1-{[4-(methylcarbamoyl)phenyl]methyl}pyrazole-4-carboxamide] |  |  |
| 4% | 7.15 µM | > 40 µM | CCOC(=O)c1cccc(Cn2cc(C(=O)NCCOc3cccc(Cl)c3)c(N)n2)c1 [Example 62, ethyl 3-[(3-amino-4-{[2-(3-chlorophenoxy)ethyl]carbamoyl}pyrazol-1-yl)methyl]benzoate] |  |  |
| 0% | 4.92 µM | > 40 µM | Nc1nn(Cc2ccnc(-n3cccn3)c2)cc1C(=O)NCCOc1cccc(Cl)c1 [Example 66, 3-amino-N-[2-(3-chlorophenoxy)ethyl]-1-{[2-(pyrazol-1-yl)pyridin-4-yl]methyl}pyrazole-4-carboxamide] |  |  |
| 0% | > 10 µM | > 40 µM | CNC(=O)CNc1cc(Cn2cc(C(=O)NCCOc3cccc(Cl)c3)c(N)n2)ccn1 [Example 68, 3-amino-N-[2-(3-chlorophenoxy)ethyl]-1-[(2-{[(methylcarbamoyl)methyl]amino}pyridin-4-yl)methyl]pyrazole-4-carboxamide] |  |  |
| 6% | > 10 µM | > 40 µM | Nc1nn(Cc2cccc(C(=O)N3CCCC3)c2)cc1C(=O)NCCOc1cccc(Cl)c1 [Example 70, 3-amino-N-[2-(3-chlorophenoxy)ethyl]-1-({3-[(pyrrolidin-1-yl)carbonyl]phenyl}methyl)pyrazole-4-carboxamide] |  |  |
| 0% | 2.07 µM | > 40 µM | Nc1nn(Cc2ccc(Oc3ccccc3)cc2)cc1C(=O)NCCOc1cccc(Cl)c1 [Example 71, 3-amino-N-[2-(3-chlorophenoxy)ethyl]-1-[(4-phenoxyphenyl)methyl]pyrazole-4-carboxamide] |  |  |
| 26% | 5.94 µM | > 40 µM | Nc1nn(Cc2cccc(-c3ccccc3)n2)cc1C(=O)NCCOc1cccc(Cl)c1 [Example 72, 3-amino-N-[2-(3-chlorophenoxy)ethyl]-1-[(6-phenylpyridin-2-yl)methyl]pyrazole-4-carboxamide] |  |  |
| 0% | > 10 µM | > 40 µM | COc1cc(Cn2cc(C(=O)NCCOc3cccc(Cl)c3)c(N)n2)ccn1 [Example 73, 3-amino-N-[2-(3-chlorophenoxy)ethyl]-1-[(2-methoxypyridin-4-yl)methyl]pyrazole-4-carboxamide] |  |  |
| 4% | > 10 µM | > 40 µM | CNC(=O)CN(C)c1cc(Cn2cc(C(=O)NCCOc3cccc(Cl)c3)c(N)n2)ccn1 [Example 74, 3-amino-N-[2-(3-chlorophenoxy)ethyl]-1-[(2-{methyl[(methylcarbamoyl)methyl]amino}pyridin-4-yl)methyl]pyrazole-4-carboxamide] |  |  |
| 0% | 3.67 µM | > 40 µM | Nc1nn(Cc2ccc(COc3ncccn3)cc2)cc1C(=O)NCCOc1cccc(Cl)c1 [Example 75, 3-amino-N-[2-(3-chlorophenoxy)ethyl]-1-({4-[(pyrimidin-2-yloxy)methyl]phenyl}methyl)pyrazole-4-carboxamide] |  |  |
| 0% | 0.227 µM | > 40 µM | Nc1nn(Cc2ccc(CN3CCOCC3=O)cc2)cc1C(=O)NCCOc1cccc(Cl)c1 [Example 76, 3-amino-N-[2-(3-chlorophenoxy)ethyl]-1-({4-[(3-oxomorpholin-4-yl)methyl]phenyl}methyl)pyrazole-4-carboxamide] |  |  |
| 0% | 0.112 µM | > 40 µM | Nc1nn(Cc2ccc(CN3CCCCC3=O)cc2)cc1C(=O)NCCOc1cccc(Cl)c1 [Example 77, 3-amino-N-[2-(3-chlorophenoxy)ethyl]-1-({4-[(2-oxopiperidin-1-yl)methyl]phenyl}methyl)pyrazole-4-carboxamide] |  |  |
| 4% | 6.93 µM | > 40 µM | CNC(=O)CNc1ccc(Cn2cc(C(=O)NCCOc3cccc(Cl)c3)c(N)n2)cn1 [Example 78, 3-amino-N-[2-(3-chlorophenoxy)ethyl]-1-[(6-{[(methylcarbamoyl)methyl]amino}pyridin-3-yl)methyl]pyrazole-4-carboxamide] |  |  |
| 9% | 5.87 µM | > 40 µM | Nc1nn(Cc2ccc(-c3ncccn3)cc2)cc1C(=O)NCCOc1cccc(Cl)c1 [Example 79, 3-amino-N-[2-(3-chlorophenoxy)ethyl]-1-{[4-(pyrimidin-2-yl)phenyl]methyl}pyrazole-4-carboxamide] |  |  |
| 0% | 6.33 µM | > 40 µM | Nc1nn(Cc2nc(-c3ccccc3)no2)cc1C(=O)NCCOc1cccc(Cl)c1 [Example 80, 3-amino-N-[2-(3-chlorophenoxy)ethyl]-1-[(3-phenyl-1,2,4-oxadiazol-5-yl)methyl]pyrazole-4-carboxamide] |  |  |

| SMILES | inhibition at 40 µM (Human FXIa; [1]) | IC50 (Human plasma kallikrein) | IC50 (Human KLK1) | % Inhibition @ 40 μM (human FXIa) (Human FXIa; [1]) | inhibition at 40 µM (Human FXIa) |
| --- | --- | --- | --- | --- | --- |
| Cc1cc(C(=O)NCCOc2cccc(Cl)c2)c(C)n1Cc1csc(-c2ccccc2)n1 [Example 48, N-[2-(3-chlorophenoxy)ethyl]-2,5-dimethyl-1-[(2-phenyl-1,3-thiazol-4-yl)methyl]pyrrole-3-carboxamide] |  | 6.62 µM | > 10 µM | 3% |  |
| Nc1nn(Cc2ccc(Br)cc2)cc1C(=O)NCCOc1cccc(Cl)c1 [Example 55, 3-amino-1-[(4-bromophenyl)methyl]-N-[2-(3-chlorophenoxy)ethyl]pyrazole-4-carboxamide] |  | 6.41 µM | > 40 µM |  | 80% |
| Nc1nn(Cc2cccc(Br)c2)cc1C(=O)NCCOc1cccc(Cl)c1 [Example 56, 3-amino-1-[(3-bromophenyl)methyl]-N-[2-(3-chlorophenoxy)ethyl]pyrazole-4-carboxamide] |  | 8.49 µM | > 40 µM |  | 0% |
| Nc1nn(Cc2ccc(C(=O)O)cc2)cc1C(=O)NCCOc1cccc(Cl)c1 [Example 69, 4-[(3-amino-4-{[2-(3-chlorophenoxy)ethyl]carbamoyl}pyrazol-1-yl)methyl]benzoic acid] |  | > 10 µM | > 40 µM |  | 0% |
